In patent publication US20020198373A1, “PARTICULATE DRUG CARRIERS” (priority 1997, published 2002):

Tested on: human erythrocytes
Assay: Haemocompatibility study (haemolysis)
Assay type: cell-based
Settings: erythrocyte, 5 h, relative to triton X-100 100% and PBS 0%
Experimental: Freshly drawn human blood was centrifuged (3,000 g) to separate the red blood cells. These were washed in PBS (pH=7.4) and weighed. 3 g of the erythrocyte pellet was dispersed in 100 mL PBS (pH=7.4) and incubated for 5 h with various concentrations of GCP41, cholesterol vesicles prepared as described above or DOTAP vesicles (Sigma Chemical Co., UK). Haemolysis was assessed by centrifugation (3,000 g) to isolate the released haemoglobin, addition of 2×volume of isopropanol to the supernatant and the measurement of the absorbance (570 nm).

Structure (SMILES): CCCCCCCC/C=C\CCCCCCCC(=O)OCC(C[N+](C)(C)C)OC(=O)CCCCCCC/C=C\CCCCCCCC.COS(=O)(=O)[O-] (centres unmarked) [DOTAP, N-[1-(2,3-dioleoyloxy)propyl]-N,N,N-trimethylammonium methylsulphate]
- % Haemolysis (n = 3) (DOTAP ratio 30): 101.4 ± 20.4%
- % Haemolysis (n = 3) (DOTAP ratio 300): 71.0 ± 10.6%
